Data from publication PMC12396409, “Screening and hit evaluation of a microbial metabolite library against the pathogenic Plasmodium falciparum and Toxoplasma gondii parasites” (International Journal for Parasitology: Drugs and Drug …, 2025).
Like-named read-outs stand apart in the source and are kept apart here. Where a SMILES comes first, the peptide text is derived from it. Bridges are numbered along the chain shown (N, C = ends). [ ]: non-standard residue; d: D form. The star is where a group is joined. ξ: configuration not given here. ξNMePhe(4-NMe2) = CNC(Cc1ccc(N(C)C)cc1)C(=O)O; Picolinoyl(3-OH) = O=C(c1ncccc1O)*; ξPip(4-oxo) = O=C1CCNC(C(=O)O)C1; Phg = N[CH](C(=O)O)c1ccccc1; Abu = CC[CH](N)C(=O)O

How the values were obtained:
[1] = test system: P. falciparum 3D7 parasites; experiment: P. falciparum growth inhibition assay, 1-cycle (72 h treatment), SYBR DNA staining (library screen at 2 μg/mL and dose-response); format: cell-based, Plasmodium falciparum; settings: for activity at 2 µg/mL: Plasmodium falciparum, 3D7, 72 h
[2] = test system: P. falciparum 3D7 parasites; experiment: P. falciparum growth inhibition assay, 2-cycle (120 h treatment), delayed-death screen and dose-response; format: cell-based, Plasmodium falciparum; settings: for activity at 2 µg/mL: Plasmodium falciparum, 3D7, 120 h
[3] = test system: T. gondii RH strain (RH-Tub-eYFP) tachyzoites; experiment: microbe, parasite or virus in culture; format: cell-based, Toxoplasma gondii; settings: 72 h; for percent parasite growth at 2 µg/mL: Toxoplasma gondii
[4] = P. falciparum, 72 h, screen at 2 μg/mL, replicate 1
[5] = P. falciparum, 72 h, screen at 2 μg/mL, replicate 2
[6] = P. falciparum, 120 h, screen at 2 μg/mL, replicate 1
[7] = P. falciparum, 120 h, screen at 2 μg/mL, replicate 2
[8] = T. gondii, screen at 2 μg/mL, replicate 1
[9] = T. gondii, screen at 2 μg/mL, replicate 2

Compound: C=C1[C@@H](C)[C@H]2[C@H](Cc3ccccc3)NC(=O)[C@]23[C@H](OC(C)=O)/C=C/[C@](C)(O)C[C@@H](C)C/C=C/[C@H]3[C@@H]1O [Cytochalasin H]
- Pf_72h_%Growth_Rep1 [1, 4]: 6.96%
- Pf_72h_%Growth_Rep2 [1, 5]: 6.37%
- Pf_120h_%Growth_Rep1 [2, 6]: 1.94%
- Pf_120h_%Growth_Rep2 [2, 7]: -0.33%
- Tg_72h_%Growth_Rep1 [3, 8]: 1.51%
- Tg_72h_%Growth_Rep2 [3, 9]: 2.70%

Compound: CSC[S@+]([O-])C[C@H](CO)NC(=O)/C=C/c1c(C)[nH]c(=O)[nH]c1=O [Sparsomycin]
- activity at 2 µg/mL ([1]; P. falciparum, 72 h, parasite screen 2 μg/mL, % growth, replicate 1, read-out: Pf_72h_%Growth_Rep1): 4.3%
- activity at 2 µg/mL ([1]; P. falciparum, 72 h, parasite screen 2 μg/mL, % growth, replicate 2, read-out: Pf_72h_%Growth_Rep2): -1%
- activity at 2 µg/mL ([2]; P. falciparum, 120 h, parasite screen 2 μg/mL, % growth, replicate 1, read-out: Pf_120h_%Growth_Rep1): 10.1%
- activity at 2 µg/mL ([2]; P. falciparum, 120 h, parasite screen 2 μg/mL, % growth, replicate 2, read-out: Pf_120h_%Growth_Rep2): -13.2%
- percent parasite growth at 2 µg/mL ([3]; T. gondii, parasite screen 2 μg/mL, % growth, replicate 1, read-out: Tg_72h_%Growth_Rep1): 2.81%
- percent parasite growth at 2 µg/mL ([3]; T. gondii, parasite screen 2 μg/mL, % growth, replicate 2, read-out: Tg_72h_%Growth_Rep2): 27.9%

Compound: CO[C@H]1C[C@H](O[C@H]2[C@H](C)O[C@@H](O[C@@H]3/C(C)=C/C[C@@H]4C[C@@H](C[C@]5(C=C[C@H](C)[C@@H](C6CCCCC6)O5)O4)OC(=O)[C@H]4C=C(C)[C@@H](O)[C@H]5OC/C(=C\C=C\[C@@H]3C)[C@@]45O)C[C@@H]2OC)O[C@@H](C)[C@@H]1O [Doramectin, epi-]
- Pf_72h_%Growth_Rep1 ([1]; library screen at 2 μg/mL, 72 h, % growth, replicate 1): 8.06%
- Pf_72h_%Growth_Rep2 ([1]; library screen at 2 μg/mL, 72 h, % growth, replicate 2): 18.63%
- Pf_120h_%Growth_Rep1 ([2]; library screen at 2 μg/mL, 120 h, % growth, replicate 1): -3.39%
- Pf_120h_%Growth_Rep2 ([2]; library screen at 2 μg/mL, 120 h, % growth, replicate 2): 23.35%
- Tg_72h_%Growth_Rep1 ([3]; library screen at 2 μg/mL, % growth, replicate 1): 72.64%
- Tg_72h_%Growth_Rep2 ([3]; library screen at 2 μg/mL, % growth, replicate 2): 83.42%

Compound: CCC1NC(=O)C(NC(=O)c2ncccc2O)C(C)OC(=O)C(c2ccccc2)NC(=O)C2CC(=O)CCN2C(=O)C(Cc2ccc(N(C)C)cc2)N(C)C(=O)C2CCCN2C1=O (stereo not drawn) [Virginiamycin B] ({Picolinoyl(3-OH)}-T[Abu]P[ξNMePhe(4-NMe2)][ξPip(4-oxo)][Phg]; ester 1-C; configuration not given here)
- Pf_72h_%Growth_Rep1 [1, 4]: 73.90%
- Pf_72h_%Growth_Rep2 [1, 5]: 82.34%
- Pf_120h_%Growth_Rep1 [2, 6]: 152.31%
- Pf_120h_%Growth_Rep2 [2, 7]: 75.63%
- Tg_72h_%Growth_Rep1 [3, 8]: 93.06%
- Tg_72h_%Growth_Rep2 [3, 9]: 114.46%

Compound: CSc1cc(=O)n2c3ccccc3c3ccnc1c32 [BIA-M1959]
- Pf_72h_%Growth_Rep1 ([1]; P. falciparum 3D7, 72 h, parasite screen at 2 μg/mL, % growth, replicate 1): 72.92%
- Pf_72h_%Growth_Rep2 ([1]; P. falciparum 3D7, 72 h, parasite screen at 2 μg/mL, % growth, replicate 2): 92.02%
- Pf_120h_%Growth_Rep1 ([2]; P. falciparum 3D7, 120 h, parasite screen at 2 μg/mL, % growth, replicate 1): 177.81%
- Pf_120h_%Growth_Rep2 ([2]; P. falciparum 3D7, 120 h, parasite screen at 2 μg/mL, % growth, replicate 2): 100.67%
- Tg_72h_%Growth_Rep1 ([3]; T. gondii, parasite screen at 2 μg/mL, % growth, replicate 1): 88.90%
- Tg_72h_%Growth_Rep2 ([3]; T. gondii, parasite screen at 2 μg/mL, % growth, replicate 2): 111.29%

Compound: C=C(NC(=O)C(=C)NC(=O)c1csc(C2=N[C@@H]3c4csc(n4)[C@H]4NC(=O)c5csc(n5)[C@H]([C@](C)(O)[C@@H](C)O)NC(=O)[C@H]5CSC(=N5)/C(=C/C)NC(=O)[C@H]([C@@H](C)O)NC(=O)c5csc(n5)[C@]3(CC2)NC(=O)[C@H](C)NC(=O)C(=C)NC(=O)C(=C)NC(=O)[C@H](C(C)C)N[C@@H]2C=Cc3c([C@H](C)O)cc(nc3[C@H]2O)C(=O)O[C@@H]4C)n1)C(N)=O [Siomycin A]
- Pf_72h_%Growth_Rep1 ([1]; P. falciparum, 72 h, parasite screen 2 μg/mL, % growth, replicate 1): 88.11%
- Pf_72h_%Growth_Rep2 ([1]; P. falciparum, 72 h, parasite screen 2 μg/mL, % growth, replicate 2): 105.15%
- Pf_120h_%Growth_Rep1 ([2]; P. falciparum, 120 h, parasite screen 2 μg/mL, % growth, replicate 1): 88.55%
- Pf_120h_%Growth_Rep2 ([2]; P. falciparum, 120 h, parasite screen 2 μg/mL, % growth, replicate 2): 55.07%
- Tg_72h_%Growth_Rep1 ([3]; T. gondii, parasite screen 2 μg/mL, % growth, replicate 1): 94.53%
- Tg_72h_%Growth_Rep2 ([3]; T. gondii, parasite screen 2 μg/mL, % growth, replicate 2): 80.70%
